Biological target: T1, PtMAC2p (Pseudozyma tsukubaensis, UniProt A0A2Z6ERP5)
T1 construct: gene PtMAC2
Test: DTNB (Ellman) assay of CoA release, absorbance at […] nm
Assay type: biochemical
Details: 0.1 mM lauroyl-CoA; co-substrate 1 mM mono-acylated MEL-D; 1 mM DTNB; 50 mM sodium phosphate pH 7.2, 25 °C

T1 sequence (A0A2Z6ERP5 1-549): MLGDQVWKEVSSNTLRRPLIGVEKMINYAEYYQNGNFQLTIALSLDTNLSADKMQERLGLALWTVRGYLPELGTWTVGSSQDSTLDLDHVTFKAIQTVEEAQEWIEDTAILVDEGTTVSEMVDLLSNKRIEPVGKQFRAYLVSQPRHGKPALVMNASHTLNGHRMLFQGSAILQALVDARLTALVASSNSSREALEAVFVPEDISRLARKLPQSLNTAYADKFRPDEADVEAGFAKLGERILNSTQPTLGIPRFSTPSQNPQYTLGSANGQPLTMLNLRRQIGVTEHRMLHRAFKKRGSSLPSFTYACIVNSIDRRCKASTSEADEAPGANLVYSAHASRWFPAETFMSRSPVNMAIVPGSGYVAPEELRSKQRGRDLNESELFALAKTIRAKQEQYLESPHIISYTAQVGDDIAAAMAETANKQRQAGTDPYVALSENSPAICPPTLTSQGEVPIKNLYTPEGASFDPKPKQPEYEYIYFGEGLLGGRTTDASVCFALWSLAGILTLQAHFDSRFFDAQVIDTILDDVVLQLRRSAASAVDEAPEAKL

Question: How did the “DTNB (Ellman) assay of CoA release, absorbance at 412 nm” value turn out when `CCCCCCCCCCCC(=O)SCCNC(=O)CCNC(=O)[C@H](O)C(C)(C)COP(=O)(O)OP(=O)(O)OC[C@H]1O[C@@H](n2cnc3c(N)ncnc32)[C@H](O)[C@@H]1OP(=O)(O)O` [lauroyl-CoA] was run?
Answer: Purified PtMAC2p catalyzes the transfer of a fatty acid of lauroyl-CoA (C12)

Reference: PMC10619693, “Structural identification of catalytic His158 of PtMAC2p from Pseudozyma tsukubaensis, an acyltransferase involved in mannosylerythritol lipids formation” (Frontiers in Bioengineering and Biotechnology, 2023)
